Test results as given in patent US6864396B2, “Substituted pentacene semiconductors” (3M Innovative Properties Company, priority 2001, dated 2005).

Type: physicochemical
Details: for Weight %: solubility in THF, 25° C., calculated with extinction coefficient of pentacene
Protocol: The solubility of several alkyl substituted pentacenes in tetrahydrofuran (THF) was compared with that of pentacene. Samples were prepared by adding excess alkyl substituted pentacene compounder pentacene compound to newly opened THF and sonicating for 20-30 seconds to facilitate dissolution. All handling of the solutions and solvent was done in a nitrogen-purged environment. Solutions were transferred to a 1 cm cuvette with a disposable pipette. The cuvette was then placed in a spectrophotometer for 5 minutes for temperature equilibration (25° C.). Absorbance measurements were made using an Hewlett Packard 8453 photodiode array spectrophotometer over a range of wavelengths from 200 to 1100 nm. THF was used as a reference blank. All of the spectrographs were corrected for baseline differences, which possibly resulted from excess compound in suspension. In calculating the concentration and weight % values, the extinction coefficient of pentacene that is, 10^3.76 at 577 nm was used for all substituted pentacenes.

| Structure (SMILES) | Concentration | Solubility in THF compared with pentacene, 2,9-dimethylpentacene, 2,10-dimethylpentacene, 2,9-didodecylpentacene | Weight % | Absorbance at 577 nm | Relative Absorbance |
| --- | --- | --- | --- | --- | --- |
| CC(CCc1ccc2cc3cc4cc5cc(CCC(C)CC(C)(C)C)ccc5cc4cc3cc2c1)CC(C)(C)C (centres unmarked) [2,9-di(3,5,5-trimethylhexyl)pentacene, 2,9-Di(3,5,5-trimethylhexyl)pentacene] | 3350 µM | significantly more soluble | 2.00 × 10^−1 Weight % | – | – |
| Cc1ccc2cc3cc4cc5cc(C)ccc5cc4cc3cc2c1 [2,9-dimethylpentacene, 2,9-Dimethylpentacene] | 3.59 µM | – | 1.64 × 10^−4 Weight % | 0.021 | 0.142 |
| Cc1ccc2cc3cc4cc5ccc(C)cc5cc4cc3cc2c1 [2,10-dimethylpentacene, 2,10-Dimethylpentacene] | 6.06 µM | – | 2.77 × 10^−4 Weight % | 0.035 | 0.239 |
| c1ccc2cc3cc4cc5ccccc5cc4cc3cc2c1 [pentacene] | 25.4 µM | – | 7.95 × 10^−4 Weight % | 0.146 | 1.000 |

The next lines start with results.

| Concentration | Solubility in THF compared with pentacene, 2,9-dimethylpentacene, 2,10-dimethylpentacene, 2,9-didodecylpentacene | Weight % | Structure (SMILES) | Absorbance at 577 nm | Relative Absorbance |
| --- | --- | --- | --- | --- | --- |
| 10.7 µM | – | 7.38 × 10^−4 Weight % | CCCCCCCCCCCCc1ccc2cc3cc4cc5cc(CCCCCCCCCCCC)ccc5cc4cc3cc2c1 [2,9-didodecylpentacene, 2,9-Didodecylpentacene] | 0.061 | 0.420 |
| 172 µM | significantly more soluble | 8.62 × 10^−3 Weight % | CCCCCCc1ccc2cc3cc4cc5cc(CCCCCC)ccc5cc4cc3cc2c1 [2,9-dihexylpentacene, 2,9-Dihexylpentacene] | 0.987 | 6.752 |
| 243 µM | significantly more soluble | 1.45 × 10^−2 Weight % | CCCCCCCCCc1ccc2cc3cc4cc5cc(CCCCCCCCC)ccc5cc4cc3cc2c1 [2,9-dinonylpentacene, 2,9-Dinonylpentacene] | 1.398 | 9.562 |
